Consider twelve compounds from patent US11524966B1 (Valo Early Discovery, Inc., priority 2017, dated 2022).

For this assay, the target named is T1, USP28 (His-tagged USP28-FL-mammalian) (Homo sapiens, UniProt Q96RU2).
T1 construct: Expression of USP28 (1-1077)-TEV-6*His (pTT5 vector); made in house; host or cells: Expi293f cells (pTT5 vector)
T1 sequence (Q96RU2 1-1077): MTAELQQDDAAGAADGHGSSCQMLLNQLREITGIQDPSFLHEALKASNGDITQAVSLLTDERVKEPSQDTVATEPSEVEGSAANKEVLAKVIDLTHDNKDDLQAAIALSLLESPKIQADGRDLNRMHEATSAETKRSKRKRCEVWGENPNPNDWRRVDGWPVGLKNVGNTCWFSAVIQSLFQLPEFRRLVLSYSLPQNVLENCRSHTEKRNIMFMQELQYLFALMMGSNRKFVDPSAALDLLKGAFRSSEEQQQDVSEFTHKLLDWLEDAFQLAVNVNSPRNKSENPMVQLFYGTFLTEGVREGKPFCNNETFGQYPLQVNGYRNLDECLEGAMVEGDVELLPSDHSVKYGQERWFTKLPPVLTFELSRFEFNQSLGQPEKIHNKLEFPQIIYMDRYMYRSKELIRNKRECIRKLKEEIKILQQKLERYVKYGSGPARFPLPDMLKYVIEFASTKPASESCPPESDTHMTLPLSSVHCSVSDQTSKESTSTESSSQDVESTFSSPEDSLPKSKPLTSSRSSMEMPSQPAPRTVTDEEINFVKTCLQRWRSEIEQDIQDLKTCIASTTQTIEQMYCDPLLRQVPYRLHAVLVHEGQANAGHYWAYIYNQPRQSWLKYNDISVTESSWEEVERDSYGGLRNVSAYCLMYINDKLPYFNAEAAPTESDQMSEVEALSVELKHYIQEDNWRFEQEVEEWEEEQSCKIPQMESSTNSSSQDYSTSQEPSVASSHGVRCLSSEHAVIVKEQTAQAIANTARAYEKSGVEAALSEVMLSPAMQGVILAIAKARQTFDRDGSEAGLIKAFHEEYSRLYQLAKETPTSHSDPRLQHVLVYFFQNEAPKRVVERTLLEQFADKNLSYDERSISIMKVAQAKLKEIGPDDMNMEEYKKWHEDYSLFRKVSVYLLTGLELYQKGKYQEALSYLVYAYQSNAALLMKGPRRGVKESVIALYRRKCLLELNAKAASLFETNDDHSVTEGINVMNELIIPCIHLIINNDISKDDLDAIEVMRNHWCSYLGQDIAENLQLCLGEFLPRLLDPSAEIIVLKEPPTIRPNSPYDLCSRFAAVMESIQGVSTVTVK
The experiment in a line: Ubiquitin-Rhodamine 110 Assay for USP28 Activity, Example A-1(a). Type of assay: biochemical. Conditions: Ubiquitin-Rhodamine 110 assay, Example A-1(a); read-out: USP28 A-1(a) IC50 range. The procedure, abridged:
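Full-length His-tagged human USP28 (1-1077, Expi293f-expressed), […], with 25 nM Ub-Rh110 (<<Km) in pH 8.0 Tris buffer with BME, BGG, Triton X-100. 10-point dilutions (25 μM-1.3 nM), 45 min at room temperature, citric acid stop, fluorescence 485/535 nm; IC50 by 4-parameter fit.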

A word on the IC50: it is the concentration that inhibits the measured activity by half. On to `Cc1ccc2c(N)c(C(=O)N[C@H]3COc4cc([C@H]5CCNC[C@H]5F)ccc4C3)sc2n1` [Example 82, 3-amino-N-((R)-7-((3S,4R)-3-fluoropiperidin-4-yl)chroman-3-yl)-6-methylthieno[2,3-b]pyridine-2-carboxamide], for which the IC50 is 1 to 50 nM. Regarding `Cc1ccc2c(N)c(C(=O)N[C@H]3COc4cc([C@@H]5CCNC[C@@H]5F)ccc4C3)sc2n1` [Example 83, 3-amino-N-((R)-7-((3R,4S)-3-fluoropiperidin-4-yl)chroman-3-yl)-6-methylthieno[2,3-b]pyridine-2-carboxamide], the IC50 was in the range of 1 to 50 nM. As to `CCn1ccc2cc(C(=O)N[C@H]3COc4c(F)c([C@@H]5CCNC[C@@H]5O)cc(F)c4C3)nnc21` [Example 84, N-((R)-5,8-difluoro-7-((3R,4S)-3-hydroxypiperidin-4-yl)chroman-3-yl)-7-ethyl-7H-pyrrolo[2,3-c]pyridazine-3-carboxamide], the IC50 was in the range of 200 to 2000 nM.

As to `CCn1ccc2cc(C(=O)N[C@H]3COc4c(F)c([C@H]5CCNC[C@H]5O)cc(F)c4C3)nnc21` [Example 85, N-((R)-5,8-difluoro-7-((3S,4R)-3-hydroxypiperidin-4-yl)chroman-3-yl)-7-ethyl-7H-pyrrolo[2,3-c]pyridazine-3-carboxamide], the IC50 was in the range of 200 to 2000 nM. For `CO[C@@H]1CN(c2cc(F)c3c(c2F)OC[C@H](NC(=O)c2sc4nc(C)ccc4c2N)C3)C[C@H]1N` [Example 86], the IC50 was 1 to 50 nM. As for `CO[C@H]1CN(c2cc(F)c3c(c2F)OC[C@H](NC(=O)c2sc4nc(C)ccc4c2N)C3)C[C@@H]1N` [Example 87, 3-amino-N-((R)-7-((3S,4S)-3-amino-4-methoxypyrrolidin-1-yl)-5,8-difluorochroman-3-yl)-6-methylthieno[2,3-b]pyridine-2-carboxamide], the IC50 lay within 1 to 50 nM.

As to `Cc1cc(C(F)F)c2c(N)c(C(=O)N[C@H]3COc4cc(N5CC6CNCC(C5)O6)ccc4C3)sc2n1` [Example 88, N-((3R)-7-(9-oxa-3,7-diazabicyclo[3.3.1]nonan-3-yl)chroman-3-yl)-3-amino-4-(difluoromethyl)-6-methylthieno[2,3-b]pyridine-2-carboxamide], the IC50 lay in the range of 1 to 50 nM. With `O=C(N[C@H]1COc2c(F)c(N3CC4CCC(C3)N4)cc(F)c2C1)c1cnc2c(c1)[C@@H]1C[C@@H]1CN2` [Example 89, (1aS, 7bR)-N-((3R)-7-(3 8-diazabicyclo[3.2.1]octan-3-yl)-5,8-difluorochroman-3-yl)-1a,2,3,7b-tetrahydro-1H-cyclopropa[c][1,8]naphthyridine-6-carboxamide] the figure was 1 to 50 nM; with `O=C(N[C@H]1COc2c(F)c(N3CC4CCC(C3)N4)cc(F)c2C1)c1cnc2c(c1)[C@H]1C[C@H]1CN2` [Example 90, (1aR,7bS)-N-((3R)-7-(3,8-diazabicyclo[3.2.1]octan-3-yl)-5,8-difluorochroman-3-yl)-1a,2,3,7b-tetrahydro-1H-cyclopropa[c][1,8]naphthyridine-6-carboxamide], 200 to 2000 nM; with `CO[C@@H]1CN(c2ccc3c(c2F)OC[C@H](NC(=O)c2sc4nc(C)ccc4c2N)C3)C[C@H]1N` [Example 91, 3-amino-N-[(3R )-7-[(3R,4R)-3-amino-4-methoxypyrrolidin-1-yl]-8-fluoro-3,4-dihydro-2H-1-benzopyran-3-yl]-6-methylthieno[2,3-b]pyridine-2-carboxamide], 50 to 200 nM.

As for `CO[C@H]1CN(c2ccc3c(c2F)OC[C@H](NC(=O)c2sc4nc(C)ccc4c2N)C3)C[C@@H]1N` [Example 92, 3-amino-N-[(3R)-7-[(3S,4S)-3-amino-4-methoxypyrrolidin-1-yl]-8-fluoro-3,4-dihydro-2H-1-benzopyran-3-yl]-6-methylthieno[2,3-b]pyridine-2-carboxamide], the IC50 was in the range of 1 to 50 nM. With `CO[C@@H]1CN(c2cc3c(cc2F)C[C@@H](NC(=O)c2sc4nc(C)ccc4c2N)CO3)C[C@H]1N` [Example 93, 3-amino-N-[(3R)-7-[(3R,4R)-3-amino-4-methoxypyrrolidin-1-yl]-6-fluoro-3,4-dihydro-2H-1-benzopyran-3-yl]-6-methylthieno[2,3-b]pyridine-2-carboxamide] the figure was 50 to 200 nM.
